What was measured:
[1] = tested on: forgetfulness, possibly developing Alzheimer's disease (AD); test: Case history: forgetful person, possible Alzheimer's disease; type: in vivo, human; conditions: one patient; indomethacin alone over six months or so
Method: A person had become very forgetful and their family was concerned that they might be developing Alzheimer's disease (AD). Because there is evidence that the NSAID indomethacin may be able to slow down the progression of AD, their child, who was a doctor, prescribed indomethacin. […] Because of animal work on the beneficial effects of AA in the aging rat brain, 800 mg of AA in triglyceride form was added to the treatment regime.

depression = test: Case history: person seriously depressed for over 10 years; type: in vivo, human; conditions: one patient; ibuprofen alone
Method: Because there is evidence of elevated formation of prostaglandins in depression, they were given a combined COX-1 and COX-2 inhibitor, ibuprofen. […] The ibuprofen was stopped and they were treated with ethyl-eicosapentaenoate at a dose of 1 g/day. This seemed to have a modest effect but they remained far from well.

Question: For `COc1ccc2c(c1)c(CC(=O)O)c(C)n2C(=O)c1ccc(Cl)cc1` [indomethacin], which effect on forgetfulness [1] is on record?
Answer: may have had a slight effect but there was no dramatic change

Question: How did the effect on depression (depression) turn out when `CC(C)Cc1ccc(C(C)C(=O)O)cc1` (centres unmarked) [ibuprofen] was run?
Answer: marginal effect but this was not apparent to observers
